Laboratory results as given in PMC10435442, “Developing multitarget coumarin based anti-breast cancer agents: synthesis and molecular modeling study” (Scientific Reports, 2023).
In brackets after ≈: the same amount, converted by molar mass. Several values for one entry are separate records, joined by “and”; a condition that tells them apart may be missing. Identical values can stand only once. Like-named read-outs stand apart in the source and are kept apart here.

Tests used:
MDA-MB-231 = assay: MTT cytotoxicity assay, MDA-MB-231; settings: for IC50: Homo sapiens; for % viability: MDA; for anti-proliferative activity against MDA-MB-231 (in words): SAR discussion
in vitro = settings: human
EGFR = EGFR (Homo sapiens, UniProt P00533); assay: In vitro EGFR enzyme inhibition assay (ELISA); settings: for EGFR %inh: lab report 01-11-2021
MCF-10A = assay: MTT cytotoxicity assay, nonmalignant MCF-10A; settings: for IC50: read-out: MCF-10A IC50, MTT, nonmalignant MCF-10A;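 as to all read-outs here: MTT assay with absorbance read at 570 nm after 48 h exposure of cells to serial compound concentrations at 37 °C, testing selectivity against nonmalignant versus cancer cells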
MCF-7 = assay: MTT cytotoxicity assay, MCF-7; settings: for IC50: Homo sapiens; for anti-proliferative activity against MCF-7 (in words): SAR discussion
[1] = MDA-MB-231, read-out: MDA-MBA-231 IC50
[2] = MDA-MB-231, read-out: cytotoxicity_IC50 MDA
[3] = MCF-10A cells (nonmalignant breast)
[4] = MCF7, read-out: cytotoxicity_IC50 mcf7
[5] = EGFR IC50, lab report 01-11-2021, 10 compounds

Sequence of EGFR (P00533 25-1210): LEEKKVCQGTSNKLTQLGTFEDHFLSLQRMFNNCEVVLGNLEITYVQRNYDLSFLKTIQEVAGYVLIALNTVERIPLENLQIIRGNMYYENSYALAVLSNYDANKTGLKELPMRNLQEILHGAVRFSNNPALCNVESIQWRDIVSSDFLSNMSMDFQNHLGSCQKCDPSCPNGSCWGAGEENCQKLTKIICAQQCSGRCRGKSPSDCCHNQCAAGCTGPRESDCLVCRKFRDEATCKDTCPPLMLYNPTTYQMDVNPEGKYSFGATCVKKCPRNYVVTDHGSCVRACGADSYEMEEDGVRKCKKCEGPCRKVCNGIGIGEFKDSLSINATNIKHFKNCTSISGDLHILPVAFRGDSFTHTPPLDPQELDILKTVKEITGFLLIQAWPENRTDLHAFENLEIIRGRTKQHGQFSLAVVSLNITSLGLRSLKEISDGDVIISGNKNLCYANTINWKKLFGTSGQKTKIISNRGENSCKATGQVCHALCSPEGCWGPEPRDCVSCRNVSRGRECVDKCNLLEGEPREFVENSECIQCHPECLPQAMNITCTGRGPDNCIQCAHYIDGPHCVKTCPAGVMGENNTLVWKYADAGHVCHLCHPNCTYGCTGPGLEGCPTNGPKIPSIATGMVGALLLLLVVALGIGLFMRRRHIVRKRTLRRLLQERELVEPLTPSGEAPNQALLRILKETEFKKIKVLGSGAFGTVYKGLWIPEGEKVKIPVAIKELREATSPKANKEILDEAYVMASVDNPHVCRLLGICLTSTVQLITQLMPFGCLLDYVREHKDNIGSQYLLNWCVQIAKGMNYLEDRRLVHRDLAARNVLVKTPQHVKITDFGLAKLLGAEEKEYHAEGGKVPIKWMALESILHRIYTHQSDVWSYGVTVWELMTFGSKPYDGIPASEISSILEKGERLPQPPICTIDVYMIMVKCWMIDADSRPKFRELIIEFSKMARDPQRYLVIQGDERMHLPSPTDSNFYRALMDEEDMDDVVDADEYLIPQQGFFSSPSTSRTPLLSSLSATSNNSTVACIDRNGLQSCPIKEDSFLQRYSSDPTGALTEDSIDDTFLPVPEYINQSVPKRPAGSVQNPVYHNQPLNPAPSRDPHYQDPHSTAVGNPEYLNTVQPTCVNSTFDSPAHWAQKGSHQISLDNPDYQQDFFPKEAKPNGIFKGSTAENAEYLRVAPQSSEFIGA

SMILES | IC50 (MDA-MB-231; [1]) [µM] | IC50 (MDA-MB-231; [2]) [µg/mL] | % viability (MDA-MB-231; 0.4ug (log conc. -0.41)) | % viability (MDA-MB-231; 1.6ug (log conc. 0.19)) | % viability (MDA-MB-231; 6.25ug (log conc. 0.8)) [%] | % viability (MDA-MB-231; 25ug (log conc. 1.4)) | % viability (MDA-MB-231; 100ug (log conc. 2)) | IC50 at 48 h (in vitro; [3]) [µg/mL] | viability at 48 h, 0.4 ug (in vitro; [3]) [%] | viability at 48 h, 1.6 ug (in vitro; [3]) [%] | viability at 48 h, 6.25 ug (in vitro; [3]) [%] | viability at 48 h, 25 ug (in vitro; [3]) [%] | IC50 (MCF-10A) [µM] | IC50 (MCF-7; MCF7, read-out: MCF-7 IC50) [µM] | IC50 (MCF-7; [4]) [µg/mL] | % viability (MCF-7; MCF7, 0.4ug) | % viability (MCF-7; MCF7, 1.6ug) | % viability (MCF-7; MCF7, 6.3ug) | % viability (MCF-7; MCF7, 25ug) | % viability (MCF-7; MCF7, 100ug) | further results
O=C(COc1ccc2c(CCl)cc(=O)oc2c1)c1ccccc1 [Compound 5, 4-(Chloromethyl)-7-(2-oxo-2-phenylethoxy)-2H-chromen-2-one] | 5.8 ± 0.1 | 1.91 ± 0.1 | 61.18% | 50.473% | 42.019 | 33.628% | 22.3344% | 27.6 ± 1.35 (≈ 84 µM) | 74.4 | 66.7 | 57.6 | 49.9 | 83.9 ± 1.35 | 39.5 ± 0.79 | 13 ± 0.79 | 67.523% | 64.281% | 52.844% | 47.217% | 38.104% | viability at 48 h, 100 ug (in vitro; [3]): 43.5%; IC50 (EGFR; EGFR IC50, lab report 01-09-2021, 04 compounds, reference Erlotinib): 0.316 µM; IC50 (EGFR; EGFR inhibition IC50): 0.316 ± 0.0066 µM; inhibition at 10 pg/mL (EGFR; read-out: EGFR %inh): 29%; inhibition at 0.0001 µg/mL (EGFR; read-out: EGFR %inh): 50%; inhibition at 0.001 µg/mL (EGFR; read-out: EGFR %inh): 70%; inhibition at 0.01 µg/mL (EGFR; read-out: EGFR %inh): 90%; Percentage above Reference IC50 (potency relative to erlotinib) (EGFR; reference Erlotinib): 54.886%
O=c1cc(CCl)c2ccc(O)cc2o1 [Compound 1, 4-chloromethyl-7-hydroxycoumarin] | 354 ± 4.06 | 74.5 ± 4.06 | 88.396% and 88.4% | 77.133% and 77.13% | 69.01 | 56.655% and 56.66% | 48.4642% and 48.46% | – | – | – | – | – | 442 ± 4.53 | 115 ± 1.47 | 24.3 ± 1.47 | 77.743% and 77.74% | 67.269% and 67.27% | 59.663% and 59.66% | 49.002% and 49% | 41.1471% and 41.15% | anti-proliferative activity against MDA-MB-231 (in words) (MDA-MB-231): devoid of activity; IC50 at 48 h (in vitro): 93 ± 4.53 µg/mL (≈ 442 µM); viability at 48 h, 0.4 ug (in vitro): 84%; viability at 48 h, 1.6 ug (in vitro): 75.6%; viability at 48 h, 6.25 ug (in vitro): 67.5%; viability at 48 h, 25 ug (in vitro): 57%; viability at 48 h, 100 ug (in vitro): 50.1%; % viability (MCF-10A; MCF10a, 0.4ug (log conc. -0.41)): 84.01%; % viability (MCF-10A; MCF10a, 1.6ug (log conc. 0.19)): 75.58%; % viability (MCF-10A; MCF10a, 6.25ug (log conc. 0.8)): 67.49%; % viability (MCF-10A; MCF10a, 25ug (log conc. 1.4)): 56.99%; % viability (MCF-10A; MCF10a, 100ug (log conc. 2)): 50.09%; anti-proliferative activity against MCF-7 (in words) (MCF-7): devoid of activity
O=C(COc1ccc2c(CCl)cc(=O)oc2c1)c1ccc(Cl)cc1 [Compound 6, 4-(Chloromethyl)-7-(2-(4-chlorophenyl)-2-oxoethoxy)-2H-chromen-2-one] | 56.6 ± 1.12 | 20.5 ± 1.12 | 73.67% | 63.08% | 56.509 | 49.4083% | 41.124% | 56.6 ± 2.76 (≈ 156 µM) | 78.1 | 70.4 | 62.2 | 54.8 | 156 ± 2.76 | 217 ± 4.77 | 78.7 ± 4.77 | 87.56% | 78.06% | 71.906% | 59.463% | 45.972% | anti-proliferative activity against MDA-MB-231 (in words) (MDA-MB-231): lower activity level; viability at 48 h, 100 ug (in vitro; [3]): 46.8%; IC50 (EGFR; [5]): 0.154 µM; IC50 (EGFR; EGFR inhibition IC50): 0.154 ± 0.008 µM; EGFR %inh (EGFR; conc 0.01 (unit not given)): 34%; EGFR %inh (EGFR; conc 0.1 (unit not given)): 57%; EGFR %inh (EGFR; conc 1 (unit not given)): 74%; EGFR %inh (EGFR; conc 10 (unit not given)): 91%; Percentage above Reference IC50 (potency relative to erlotinib) (EGFR; reference Erlotinib): 54.545%; anti-proliferative activity against MCF-7 (in words) (MCF-7): lower activity level
COc1cccc2c1C(=O)c1c(O)c3c(c(O)c1C2=O)C[C@@](O)(C(=O)CO)C[C@@H]3O[C@H]1C[C@H](N)[C@H](O)[C@H](C)O1 [Doxorubicin, reference compound] | 7.3 ± 0.22 | 3.98 ± 0.22 | – | – | – | 40.9788% | – | 12.4 ± 0.6 (≈ 22.8 µM) | 74 | 63.5 | 55.4 | 44.6 | 22.8 ± 0.6 | 5.6 ± 0.18 | 3.04 ± 0.18 | 62.95% | 52.16% | 46.435% | 38.2693% | 28.946% | % viability (MDA-MB-231; 0.4ug (log conc. -0.41), listed as Dox): 63.56% and 63.5613%; % viability (MDA-MB-231; 1.6ug (log conc. 0.19), listed as Dox): 55.84% and 55.8373%; % viability (MDA-MB-231; 6.25ug (log conc. 0.8), listed as Dox): 46.58% and 46.5802%; % viability (MDA-MB-231; 100ug (log conc. 2), listed as Dox): 29.599% and 29.5991%; viability at 48 h, 100 ug (in vitro; [3]): 35.9%; % viability (MCF-10A; MCF10a cells, 0.4ug, listed as Dox): 73.9934%; % viability (MCF-10A; MCF10a cells, 1.6ug, listed as Dox): 63.4983%; % viability (MCF-10A; MCF10a cells, 6.25ug (6.3ug), listed as Dox): 55.4455%; % viability (MCF-10A; MCF10a cells, 100ug, listed as Dox): 35.9076%; IC50 (MCF-10A; listed as DOX): 12.4 µM; % viability (MCF-7; MCF7, 0.4ug (log conc. -0.4089)): 62.9494%; % viability (MCF-7; MCF7, 1.6ug (log conc. 0.1931)): 52.1633%; % viability (MCF-7; MCF7, 6.25ug (log conc. 0.7959)): 46.4351%; % viability (MCF-7; MCF7, 100ug (log conc. 2)): 28.9458%
CC(=O)Oc1ccc2c(COC(=O)c3ccccc3)cc(=O)oc2c1 [Compound 13, (7-Acetoxy-2-oxo-2H-chromen-4-yl)methyl benzoate] | 30.7 ± 0.56 | 10.4 ± 0.56 | 65.76% | 58.55% | 52.297 | 46.9551% | 38.515% | 166 ± 8.1 (≈ 491 µM) | 89.7 | 81.1 | 73.6 | 63.3 | 490 ± 8.1 | 111 ± 2.28 | 37.6 ± 2.28 | 80.82% | 70.97% | 64.282% | 55.0733% | 40.88% | viability at 48 h, 100 ug (in vitro; [3]): 52.2%; IC50 (EGFR; [5]): 0.364 µM; IC50 (EGFR; EGFR inhibition IC50): 0.363 ± 0.02 µM; Percentage above Reference IC50 (potency relative to erlotinib) (EGFR; reference Erlotinib): 23.14%
O=C(COc1ccc2c(COC(=O)c3ccccc3)cc(=O)oc2c1)c1ccccc1 [Compound 7, [2-Oxo-7-(2-oxo-2-phenylethoxy)-2H-chromen-4-yl]methyl benzoate] | 56.7 ± 1.28 | 23.5 ± 1.28 | 75.96% | 68.64% | 59.243 | – | 38.991% | 41.9 ± 2.04 (≈ 101 µM) | 78.3 | 71.5 | 59.2 | 53.7 | 101 ± 2.04 | 77.5 ± 1.94 | 32.1 ± 1.94 | 83.43% | 71.93% | 62.508% | 52.7829% | 40.856% | anti-proliferative activity against MDA-MB-231 (in words) (MDA-MB-231): poor anti-proliferative activity; viability at 48 h, 100 ug (in vitro; [3]): 45.1%; IC50 (EGFR; [5]): 0.333 µM; IC50 (EGFR; EGFR inhibition IC50): 0.341 ± 0.019 µM; EGFR %inh (EGFR; conc 0.01 (unit not given)): 30%; EGFR %inh (EGFR; conc 0.1 (unit not given)): 42%; EGFR %inh (EGFR; conc 1 (unit not given)): 67%; EGFR %inh (EGFR; conc 10 (unit not given)): 89%; Percentage above Reference IC50 (potency relative to erlotinib) (EGFR; reference Erlotinib): 24.633%; anti-proliferative activity against MCF-7 (in words) (MCF-7): diminished the activity
COc1ccccc1C(=O)OCc1cc(=O)oc2cc(OC(C)=O)ccc12 [Compound 15, (7-Acetoxy-2-oxo-2H-chromen-4-yl)methyl 2-methoxybenzoate] | 74.9 ± 1.52 | 27.9 ± 1.52 | 76.72% | 65.9% | 56.927 | 46.8873% | 37.745% | 115 ± 5.62 (≈ 312 µM) | 86 | 78.2 | 68.2 | 60.1 | 312 ± 5.62 | 17.1 ± 0.38 | 6.3 ± 0.38 | 67.97% | 58.26% | 50.063% | 42.623% | 31.337% | viability at 48 h, 100 ug (in vitro; [3]): 50.8%; anti-proliferative activity against MCF-7 (in words) (MCF-7): moderate anti-proliferative activity
